Results as given in patent US11104684B2, “Dimers of covalent NFKB inhibitors” (BOARD OF REGENTS OF THE UNIVERSITY OF NEBRASKA, priority 2016, dated 2021).

Columns and labels:
[1] = test system: non-transformed HGSC precursor fallopian tube epithelial (FTE) cells FT282; test: Growth inhibition in non-transformed fallopian tube epithelial cells; type: cell-based; conditions: for IC50: Epithelial cell, non-transformed FT282 cells
Procedure: Monomeric compound 19, 36-252, and 36-242 were evaluated in non-transformed HGSC precursor fallopian tube epithelial (FTE) cells FT282.

[2] = test system: proteins in the IKK complex (A2780 cells); test: Western blot analysis of crosslinking; type: cell-based; conditions: for crosslinking (high molecular weight bands): A2780 cells, 10 pM, 2 hours
Procedure: Crosslinking of proteins in the IKK complex was studied as follows. A2780 cells were treated with 10 pM of analog 19 or 36-252 and incubated for 2 hours.
Cells were washed with cold 1×PBS 3 times and scraped before being lysed by a buffer containing the following: 50 mM Tris, 100 mM NaCl, 1% NP-40, […], 20% SDS, 20×PPl (Na3VO4, NAF, β-glycerophosphate) and 1 mmol/L PMSF. After collection, samples were incubated on ice for 30 minutes and vortexed in 15 minute intervals. Samples were then centrifuged at 14,000rpm for 10 minutes at 4° C. and supernatant was collected. Protein quantification was determined by BCA Protein Assay (Pierce #23225). 20-40ug protein samples were run on 4-15% gradient gels (BioRad) in 1×TRIS-Glycine-SDS Buffer (Research Products International Corporation #T32080) at 120V for -60 minutes and separated by SDS-page electrophoresis. Samples were transferred to a PVDF membrane by semi-dry transfer method (ThermoScientific #35035) run at 18V for ˜35 minutes. Membranes were blocked in 5% milk diluted in 1×-Tris Buffered Saline with 0.1% Tween (1×TBST) for 1 hour at room temperature rocking at low speed. Primary antibodies were diluted in 5% milk in 1×TBST and were rocked gently overnight in 4° C. Membranes were incubated with the appropriate HRP-conjugated secondary antibody for 1 hour at room temperature while gently rocking. 3 washes (10 minute) with 1×TBST occurred before and after secondary antibody. ECL Prime (GE Healthcare #RPB2236) was used to detect protein expression

A2780 cells = test: Cell viability assay (PrestoBlue, 72 hour drug incubation); type: cell-based; conditions: 72 hour incubation, growth inhibition; for IC50: Homo sapiens
Procedure: (§1) MiaPaCa2, A2780, and OVCAR5 cells were plated at 4000 cells/well in a 96-well plate and allowed to adhere overnight. The following day, cells were treated with compounds using ˜10-fold dilutions starting at 1000 nM. PrestoBlue reagent (Invitrogen #A13262) was added to cells after 72 hour drug incubation to assess the growth inhibition. Fluorescence excitation/emission was measured at 560/590nM using a SpectraMax M5^e instrument. Growth inhibition was calculated using 100-[100*(Samples-T0)/(T100-T0)]. T0 is the vehicle control reading immediately following drug addition and T100 is the control reading at the end of 72 hour incubation.

MiaPaCa2 cells = test: as above; type: cell-based; conditions: Homo sapiens, MIA PaCa-2, 72 hour incubation, growth inhibition
Procedure: as §1

OVCAR5 cells = test: as above; type: cell-based; conditions: growth inhibition; for IC50: Homo sapiens, OVCAR-5, 72 hour incubation
Procedure: as §1

ovarian cancer cells = test: 3-day growth assay; type: cell-based
Description: In the same assay, reduced compound 36-297.

[3] = test system: high grade serous carcinoma (HGSC) ovarian cancer cell lines; test: Growth inhibition in a panel of HGSC ovarian cancer cell lines; type: cell-based
Procedure: The IC50 value of all three inhibitors was greater than 20 μM in this cell line.

[4] = test system: caspase 3/7 activity in HGSC cell lines; test: Caspase 3/7 luciferase assay (apoptosis); type: cell-based; conditions: 1 μM, 6 hours, five HGSC cell lines
Procedure: To determine the effect of 36-252 on apoptosis, a small panel of HGSC cell lines was treated with 1 μM 36-252 for 6 hours (1 μM of flavopiridol was used as a positive control). Caspases are a class of cysteine proteinases that are activated during apoptosis and measuring caspase activity is routinely used to detect activation of apoptotic signaling. Activation of caspase 3/7 was assessed using a luciferase assay.
2500 cells were plated in a 384-well black walled clear bottom plate at 2,500 cells per well in […] per well in the presence of 4.5 μM doxycycline. Cells were incubated overnight to adhere to plate. After cells were treated and plate was allowed to incubate, Caspase-glo (Promega G8093) reagent was added and the plate was allowed to incubate for 30 min. The plate was then read for luminescence at 1000 ms. Presto-blue was added at a volume of 1/10 total volume per well (2.5μL) and cells were allowed to incubate for 10 min. The plate was then read for fluorescence at 560ex/590em. Values were calculated by: ([Luminescence*100]/Fluorescence)/DMSOavg.

[5] = test system: TNF-α-induced NFκB activity in A549 luciferase cells; test: kB-luciferase assay; type: cell-based; conditions: 20, 4, and 0.8 pM for 2 hours, then TNF-a
Procedure: A549 luciferase cells were seeded in white 96-well plates at a density of 50,000 cells per well and incubated overnight. Cells were stimulated with 20 ng/mL TNFα (Panomics) for 3 hours. AlamarBlue (abSerotec) was added (which served as a control for seeding and viability) and the cells were incubated for 3 additional hours. ONE-Glo Luciferase reagent (Promega) was added to each well and cells were incubated at room temperature for an additional 10 minutes before luminescence was measured at 1000 ms integration on a SpectraMax M5e plate reader.
The effect 36-252 and 36-297 on NFκB driven gene expression was evaluated using a cancer cell line specifically designed to monitor the activity of NFκB in response to TNF-α. Cells were seeded onto 96-well plates and allowed to attach overnight. The cells were treated with 36-252 and 36-297 (20, 4, and 0.8 pM) for 2 hours, followed by TNF-a for an additional 6 hours. Under multiplexing conditions the cells were assayed for viability using Alamar Blue (Ab Serotec) and the NFκB transcription activity using the ONE-Glo luciferase system (Promega).

[6] = Dose limiting toxicities / MTD study; type: in vivo
Procedure: Six to eight-week-old C57 Albino mice (18-22 grams) were used in this study and were randomly assigned. For MTD studies, 3 mice were randomly assigned to six groups. Animals (Group 1-6) received a single dose of (0, 1, 5, 10, 20 and 100 mg/Kg in […] neat DMSO) of 36-252 via intraperitoneal injection. Mice were sacrificed after 48 hours, and blood and serum samples were subjected to hematology and clinical chemistry analyses. For group 7, a 6-day, 5 mg/kg/day study was carried out followed by submission of samples for hematology and clinical chemistry analyses.
In the phase I study, the lethal dose or maximum tolerated dose of 36-252 was evaluated. […] In the phase II study, three mice at 5 mg/kg/day were administered intraperitoneally for six days.

OVCAR5 SP cells = test: Side population analysis (Hoechst 33342, flow cytometry); conditions: 60 μM, 15 min at 37° C.
Procedure: (§2) Hoechst 33342 dye (5 μg) was added to each tube and incubated for 45 min at 37° C. Tubes were vortexed slightly after every 5 min. Cells were resuspended in a single cell suspension after centrifugation and kept on ice before acquisition. The side-population was measured by flow cytometry.

A2780 SP cells = test: as above; conditions: 60 μM, 15 min at 37° C.
Procedure: as §2

[7] = panel of HGSC ovarian cancer cell lines
[8] = mouse, in vivo, ip, 5 mg/kg/day

Compound	IC50 (A2780 cells)	IC50 (MiaPaCa2 cells)	IC50 (OVCAR5 cells)	other results
C=C1CC2(OC1=O)C(=O)Nc1ccccc12 (centres unmarked) [Compound 19]				IC50 [1]: > 20000 nM; crosslinking (high molecular weight bands) [2]: High molecular weight bands in the NFκB and IKBα blots were observed
C=C1CC2(NC1=O)C(=O)Nc1ccccc12 (centres unmarked) [Compound 25-4]	0.99 ± 0.11 µM	6.08 µM	3.13 ± 0.55 µM	
C=C1CC2(OC1=O)C(=O)N(CCCCCN1C(=O)C3(CC(=C)C(=O)O3)c3ccccc31)c1ccccc12 (centres unmarked) [Compound 36-202]	0.29 ± 0.04 µM	0.91 µM	0.09 ± 0.01 µM	
C=C1CC2(OC1=O)C(=O)N(CCCCCCCCCN1C(=O)C3(CC(=C)C(=O)O3)c3ccccc31)c1ccccc12 (centres unmarked) [Compound 36-204]	1.08 ± 0.01 µM	2.16 µM	0.48 ± 0.06 µM	
C=C1CC2(OC1=O)C(=O)N(CCCCCCN1C(=O)C3(CC(=C)C(=O)O3)c3ccccc31)c1ccccc12 (centres unmarked) [Compound 36-239]	0.7 ± 0.09 µM	1.05 µM	0.3 ± 0.02 µM	
C=C1CC2(OC1=O)C(=O)N(CCCCCCCCCCCCN1C(=O)C3(CC(=C)C(=O)O3)c3ccccc31)c1ccccc12 (centres unmarked) [Compound 36-242]	0.5 ± 0.06 µM	1.94 µM	0.47 ± 1.29 µM	potency relative to monomeric compound 19 (ovarian cancer cells): 10 fold; IC50 [1]: > 20000 nM
C=C1CC2(OC1=O)C(=O)N(CCCCCCCN1C(=O)C3(CC(=C)C(=O)O3)c3ccccc31)c1ccccc12 (centres unmarked) [Compound 36-252]	0.32 µM	0.76 µM	0.32 µM	IC50 ([3]; average over HGSC cell lines): 780 nM; potency compared with 19 and 36-242 [3, 7]: more potent than analog 19 and a dimer with a 12-carbon linker 36-242; potency in HGSC panel [3, 7]: sub μM; IC50 [1]: > 20000 nM; apparent therapeutic index ([1]; FT282 IC50 vs average HGSC IC50): greater than 25; caspase 3/7 activity [4]: Increased caspase 3/7 activity was seen in three of the five HGSC cell lines; inhibition of NFκB transcription activity [5]: Dose-dependent inhibition was observed; crosslinking (high molecular weight bands) [2]: High molecular weight bands in the NFκB and IKBα blots were observed; bands in time course study ([2]; time course study): a band between 150 and 250 kDa in addition to the IKBα-NFκB bands; protein degradation / PARP cleavage ([2]; time course study): degradation of IKK α/β and PARP cleavage; Treated/Alive ([6]; 1 mg/Kg, 1 dose, intraperitoneal, mice): (3/3); hematological analysis (WBC, RBC, hemoglobin) ([6]; mouse, in vivo): no significant differences in relative WBC, RBC, or hemoglobin numbers; overt toxicity ([6]; mouse, in vivo, 100 mg/kg): no sign of overt toxicity was observed; mean body weight [6, 8]: nor was any statistical difference in mean body weight observed; mortality and clinical levels [6, 8]: No mortality or abnormal clinical levels were observed; SP cells eliminated, OVCAR5 (OVCAR5 SP cells): > 85%; SP cells eliminated, A2780 (A2780 SP cells): > 98%
C=C1CC2(OC1=O)C(=O)N(CCCCCCCCN1C(=O)C3(CC(=C)C(=O)O3)c3ccccc31)c1ccccc12 (centres unmarked) [Compound 36-254]	0.6 ± 0.07 µM	1.7 µM	0.32 µM	
C=C1CC2(OC1=O)C(=O)N(CCCCCCCCCCN1C(=O)C3(CC(=C)C(=O)O3)c3ccccc31)c1ccccc12 (centres unmarked) [Compound 36-256]	0.49 ± 0.06 µM	1.47 µM	0.41 ± 0.06 µM	
C=C1CC2(OC1=O)C(=O)N(CCCCCCCCCCCN1C(=O)C3(CC(=C)C(=O)O3)c3ccccc31)c1ccccc12 (centres unmarked) [Compound 36-258]	0.77 ± 0.14 µM		0.83 ± 0.12 µM	
C=C1CC2(OC1=O)C(=O)N(CCCCCCCN1C(=O)C3(CC(=C)C(=O)O3)c3c(C)ccc(C)c31)c1c(C)ccc(C)c12 (centres unmarked) [Compound 36-280]	0.35 ± 0.05 µM		0.37 ± 0.04 µM	
C=C1CC2(OC1=O)C(=O)N(CCCN1C(=O)C3(CC(=C)C(=O)O3)c3ccccc31)c1ccccc12 (centres unmarked) [Compound 36-286]	0.23 ± 0.02 µM		0.09 ± 0.01 µM	
CC1CC2(OC1=O)C(=O)N(CCCCCCCN1C(=O)C3(CC(C)C(=O)O3)c3ccccc31)c1ccccc12 (centres unmarked) [Compound 36-297]				IC50 (μM) A2780 (A2780 cells): Inactive; IC50 (μM) OVCAR5 (OVCAR5 cells; 72 hour incubation): Inactive
C=C1CC2(OC1=O)C(=O)N(Cc1ccc(CN3C(=O)C4(CC(=C)C(=O)O4)c4ccccc43)cc1)c1ccccc12 (centres unmarked) [Compound 40-014]	0.31 ± 0.02 µM		0.18 ± 0.01 µM	
C=C1CC2(NC1=O)C(=O)N(CCCCN1C(=O)C3(CC(=C)C(=O)N3)c3ccccc31)c1ccccc12 (centres unmarked) [Compound 40-038]	0.4 ± 0.06 µM		0.2 ± 0.04 µM	
C=C1CC2(OC1=O)C(=O)N(CCN1C(=O)C3(CC(=C)C(=O)O3)c3ccccc31)c1ccccc12 (centres unmarked) [Compound 40-059]	0.42 ± 0.04 µM		0.32 ± 0.02 µM	
